Values after ≈ are worked out from the molar mass of the structure shown. Bridge positions count the residues as written; N and C are the ends. Peptide text beside a SMILES is read from it.
Legend:
[1] = test system: S. aureus 49525 (Xen36 luciferase); assay type: cell-based, Staphylococcus aureus; conditions: 8 μg/mL, 60 min incubation, bioluminescence, triplicates from two independent experiments
Summary of the method: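 Luciferase-expressing bacteria exposed to 2-fold serial dilutions of peptide in growth medium with 150 μg/mL D-luciferin, triplicate. Bioluminescence imaged at select times versus concurrent vehicle control as a real-time viability read-out.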

P. aeruginosa ATCC 27853 = assay type: cell-based, Pseudomonas aeruginosa; conditions: cation adjusted Mueller-Hinton broth, ~10^6 CFU/mL, 24 h, 37 °C, OD600 <0.1 in at least 3 of 4 wells, 2-128 μg/mL; shaded values previously reported ref 18
Summary of the method: (§1)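 MIC = lowest dAMP level giving OD600 <0.1 in at least three of four replicate wells after 24 h at 37 °C. Inoculum ~10^6 CFU/mL in 2X cation-adjusted Mueller–Hinton broth; potato dextrose broth for the fungal isolate. Test range 2–128 μg/mL plus untreated.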

P. aeruginosa 6186 = assay type: cell-based, Pseudomonas aeruginosa; conditions: cation adjusted Mueller-Hinton broth, ~10^6 CFU/mL, 24 h, 37 °C, OD600 <0.1 in at least 3 of 4 wells, 2-128 μg/mL; shaded values previously reported ref 18
Summary of the method: as §1

P. aeruginosa ATCC 19660 = assay type: cell-based, Pseudomonas aeruginosa; conditions: cation adjusted Mueller-Hinton broth, ~10^6 CFU/mL, 24 h, 37 °C, OD600 <0.1 in at least 3 of 4 wells, 2-128 μg/mL; shaded values previously reported ref 18
Summary of the method: as §1

K. pneumonia 6069 = assay type: cell-based, Klebsiella pneumoniae; conditions: cation adjusted Mueller-Hinton broth, ~10^6 CFU/mL, 24 h, 37 °C, OD600 <0.1 in at least 3 of 4 wells, 2-128 μg/mL; shaded values previously reported ref 18
Summary of the method: as §1

K. pneumonia ATCC 10031 = assay type: cell-based, Klebsiella pneumoniae; conditions: cation adjusted Mueller-Hinton broth, ~10^6 CFU/mL, 24 h, 37 °C, OD600 <0.1 in at least 3 of 4 wells, 2-128 μg/mL; shaded values previously reported ref 18
Summary of the method: as §1

A. baumannii 6838 = assay type: cell-based, Acinetobacter baumannii; conditions: cation adjusted Mueller-Hinton broth, ~10^6 CFU/mL, 24 h, 37 °C, OD600 <0.1 in at least 3 of 4 wells, 2-128 μg/mL; shaded values previously reported ref 18
Summary of the method: as §1

A. baumannii ATCC 17978 = assay type: cell-based, Acinetobacter baumannii; conditions: cation adjusted Mueller-Hinton broth, ~10^6 CFU/mL, 24 h, 37 °C, OD600 <0.1 in at least 3 of 4 wells, 2-128 μg/mL; shaded values previously reported ref 18
Summary of the method: as §1

A. baumannii 6043 = assay type: cell-based, Acinetobacter baumannii; conditions: cation adjusted Mueller-Hinton broth, ~10^6 CFU/mL, 24 h, 37 °C, OD600 <0.1 in at least 3 of 4 wells, 2-128 μg/mL; shaded values previously reported ref 18
Summary of the method: as §1

[2] = test system: Aspergillus fumigatus 9648; assay type: cell-based; conditions: potato dextrose broth, 24 h, 37 °C, OD600 <0.1 in at least 3 of 4 wells, dose range 2 to 128 µg/mL; shaded values previously reported ref 17
Summary of the method: as §1

[3] = test system: Aspergillus fumigatus 9651; assay type: cell-based; conditions: potato dextrose broth, 24 h, 37 °C, OD600 <0.1 in at least 3 of 4 wells, dose range 2 to 128 µg/mL; shaded values previously reported ref 17
Summary of the method: as §1

[4] = test system: Aspergillus flavus MYA-3651; assay type: cell-based; conditions: potato dextrose broth, 24 h, 37 °C, OD600 <0.1 in at least 3 of 4 wells, dose range 2 to 128 µg/mL; shaded values previously reported ref 17
Summary of the method: as §1

[5] = test system: Absidia corymbifera NRRL 6251; assay type: cell-based; conditions: potato dextrose broth, 24 h, 37 °C, OD600 <0.1 in at least 3 of 4 wells, dose range 2 to 128 µg/mL; shaded values previously reported ref 17
Summary of the method: as §1

[6] = test system: Mucor circinelloides NRRL 3631; assay type: cell-based; conditions: potato dextrose broth, 24 h, 37 °C, OD600 <0.1 in at least 3 of 4 wells, dose range 2 to 128 µg/mL; shaded values previously reported ref 17
Summary of the method: as §1

E. cloacae 6053 = assay type: cell-based; conditions: cation adjusted Mueller-Hinton broth, ~10^6 CFU/mL, 24 h, 37 °C, OD600 <0.1 in at least 3 of 4 wells, 2-128 μg/mL; shaded values previously reported ref 18
Summary of the method: as §1

Candida albicans Y-6359 = assay type: cell-based; conditions: potato dextrose broth, 24 h, 37 °C, OD600 <0.1 in at least 3 of 4 wells, dose range 2 to 128 µg/mL; shaded values previously reported ref 17
Summary of the method: as §1

[7] = test system: Aspergillus flavus MYA-1004; assay type: cell-based; conditions: potato dextrose broth, 24 h, 37 °C, OD600 <0.1 in at least 3 of 4 wells, dose range 2 to 128 µg/mL; shaded values previously reported ref 17
Summary of the method: as §1

Candida krusei Y-27803 = assay type: cell-based; conditions: potato dextrose broth, 24 h, 37 °C, OD600 <0.1 in at least 3 of 4 wells, dose range 2 to 128 µg/mL; shaded values previously reported ref 17
Summary of the method: as §1

[8] = test system: Candida parapsilosis Y-1761; assay type: cell-based; conditions: potato dextrose broth, 24 h, 37 °C, OD600 <0.1 in at least 3 of 4 wells, dose range 2 to 128 µg/mL; shaded values previously reported ref 17
Summary of the method: as §1

S. epidermis ATCC 51625 = assay type: cell-based; conditions: cation adjusted Mueller-Hinton broth, ~10^6 CFU/mL, 24 h, 37 °C, OD600 <0.1 in at least 3 of 4 wells, 2-128 μg/mL; shaded values previously reported ref 18
Summary of the method: as §1

E. cloacae 6054 = assay type: cell-based; conditions: cation adjusted Mueller-Hinton broth, ~10^6 CFU/mL, 24 h, 37 °C, OD600 <0.1 in at least 3 of 4 wells, 2-128 μg/mL; shaded values previously reported ref 18
Summary of the method: as §1

[9] = test system: Candida parapsilosis Y-1763; assay type: cell-based; conditions: potato dextrose broth, 24 h, 37 °C, OD600 <0.1 in at least 3 of 4 wells, dose range 2 to 128 µg/mL; shaded values previously reported ref 17
Summary of the method: as §1

Candida albicans Y-326 = assay type: cell-based; conditions: potato dextrose broth, 24 h, 37 °C, OD600 <0.1 in at least 3 of 4 wells, dose range 2 to 128 µg/mL; shaded values previously reported ref 17
Summary of the method: as §1

[10] = test system: Fusarium solani NRRL 28548; assay type: cell-based; conditions: potato dextrose broth, 24 h, 37 °C, OD600 <0.1 in at least 3 of 4 wells, dose range 2 to 128 µg/mL; shaded values previously reported ref 17
Summary of the method: as §1

Candida krusei Y-27825 = assay type: cell-based; conditions: potato dextrose broth, 24 h, 37 °C, OD600 <0.1 in at least 3 of 4 wells, dose range 2 to 128 µg/mL; shaded values previously reported ref 17
Summary of the method: as §1

CC[C@H](C)[C@@H]1NC(=O)CNC(=O)[C@H](CCCCN)NC(=O)[C@H](Cc2ccc(O)cc2)NC(=O)[C@@H]2CSSC[C@H](NC1=O)C(=O)N[C@@H](Cc1ccccc1)C(=O)N[C@@H](CCCCN)C(=O)N[C@@H](CCCCN)C(=O)N[C@H](C(=O)N[C@@H](CCCCN)C(N)=O)CSSC[C@H](NC(=O)[C@H](Cc1ccccc1)NC(=O)[C@@H](N)CCCNC(=N)N)C(=O)N[C@@H](Cc1c[nH]c3ccccc13)C(=O)N[C@@H](CCCCN)C(=O)N[C@@H](C(C)C)C(=O)N2 [RP557] (H-RFCWKVCYKGICFKKCK-NH2; disulfide 3-16, 7-12)
S. aureus killing [1]: 70% | MIC against P. aeruginosa ATCC 27853 (P. aeruginosa ATCC 27853): 4 µg/mL (≈ 1.87 µM) | MIC against P. aeruginosa 6186 (P. aeruginosa 6186): 4 µg/mL (≈ 1.87 µM) | MIC against P. aeruginosa ATCC 19660 (P. aeruginosa ATCC 19660): 4 µg/mL (≈ 1.87 µM) | MIC against K. pneumonia 6069 (K. pneumonia 6069): 4 µg/mL (≈ 1.87 µM) | MIC against K. pneumonia ATCC 10031 (K. pneumonia ATCC 10031): 8 µg/mL (≈ 3.75 µM) | MIC against A. baumannii 6838 (A. baumannii 6838): 8 µg/mL (≈ 3.75 µM) | MIC against A. baumannii ATCC 17978 (A. baumannii ATCC 17978): 16 µg/mL (≈ 7.49 µM) | MIC against A. baumannii 6043 (A. baumannii 6043): 8 µg/mL (≈ 3.75 µM) | MIC against Aspergillus fumigatus 9648 [2]: 64 µg/mL (≈ 30 µM) | MIC against Aspergillus fumigatus 9651 [3]: 64 µg/mL (≈ 30 µM) | MIC against Aspergillus flavus MYA-3651 [4]: 64 µg/mL (≈ 30 µM) | MIC against Absidia corymbifera NRRL 6251 [5]: 2 µg/mL (≈ 0.936 µM) | MIC against Mucor circinelloides NRRL 3631 [6]: 64 µg/mL (≈ 30 µM) | MIC against E. cloacae 6053 (E. cloacae 6053): 8 µg/mL (≈ 3.75 µM) | MIC against Candida albicans Y-6359 (Candida albicans Y-6359): 4 µg/mL (≈ 1.87 µM) | MIC against Aspergillus flavus MYA-1004 [7]: 64 µg/mL (≈ 30 µM) | MIC against Candida krusei Y-27803 (Candida krusei Y-27803): 16 µg/mL (≈ 7.49 µM) | MIC against Candida parapsilosis Y-1761 [8]: 16 µg/mL (≈ 7.49 µM) | MIC against S. epidermis ATCC 51625 (S. epidermis ATCC 51625): 8 µg/mL (≈ 3.75 µM) | MIC against E. cloacae 6054 (E. cloacae 6054): 8 µg/mL (≈ 3.75 µM) | MIC against Candida parapsilosis Y-1763 [9]: 2 µg/mL (≈ 0.936 µM) | MIC against Candida albicans Y-326 (Candida albicans Y-326): 16 µg/mL (≈ 7.49 µM) | MIC against Fusarium solani NRRL 28548 [10]: 2 µg/mL (≈ 0.936 µM) | MIC against Candida krusei Y-27825 (Candida krusei Y-27825): 16 µg/mL (≈ 7.49 µM)
